These are literature values, as cited in patent US20250066504A1, “USE OF OREGOVOMAB AND PARP INHIBITORS FOR TREATMENT OF OVARIAN CANCER” (CANARIABIO INC., priority 2022, published 2025).

Several values for one entry are separate records, joined by “and”; a condition that tells them apart may be missing. Equal entries are not always repeated. Where two headings read alike, the source gives them in different places.

For data set [1], the system named is patient-derived Ewing sarcoma. Conditions: mouse, in vivo.
Data set [2] relates to BRCA1-mutant xenograft. Conditions: dosed orally.
Data set [3] has as its system BRCA2-mutant pancreatic cancer (CAPAN-1).
The conditions of data set [4]: 300 mg dose.
In data set [5] the test system is BRCA1-mutant breast cancer (MDA-MB-436).
Data set [6] relates to patient-derived ovarian and breast cancer xenograft. To be noted: in vivo.
For data set [7] the following is noted: in vivo.
The test system of data set [8] is ovarian cancer.
Assay in data set [9]: not given
This is another data set of the same source.

The subject of data set [10] is cells with HRD.
For data set [11] the following is noted: for grade 3/4 thrombocytopenia rate in the first 30 days: classification tree model.
Data set [12] concerns the target P-glycoprotein (P-gp) (Homo sapiens, UniProt P08183).
Data set [13] concerns platinum-sensitive, recurrent ovarian cancer.
For data set [14] the following is noted: human, in vivo.
The test system of data set [15] is CA125.
Data set [16] concerns immune suppressive malignancy. To be noted: immune initiation alone.
For data set [17] the following is noted: 100 times the estimated human dose equivalent (2 mg/60 kg body weight).
The conditions of data set [18]: 100 times the estimated human dose equivalent (2 mg/60 kg body weight). The source holds these as a separate data set.
For data set [19], the system named is normal human organs and tissues.
For data set [20] the following is noted: normal rats.
Data set [21] relates to tumor. Conditions: tumor-bearing mice.
Data set [22] relates to adenocarcinomas expressing the CA125 antigen.
Data set [23] deals with CA-125-expressing tumors. Conditions: mouse, in vivo.
For data set [24] the following is noted: human, in vivo. This is another data set of the same source.
The conditions of data set [25]: normal rabbits.
Data set [26] has as its system platinum-sensitive recurrent ovarian cancer. To be noted: added to standard chemotherapy, followed by maintenance until progression.
Data set [27] concerns platinum-sensitive disease. To be noted: added to gemcitabine and carboplatin.
Data set [28] deals with platinum resistant disease.
In data set [29] the test system is advanced epithelial ovarian, adnexal, or primary peritoneal cancer, Stage III and Stage IV. To be noted: K-M method.
Setting [30] is: lower baseline platelets (<180×10^9/L).
[31] abbreviates: HRDpos (Within non-gBRCAmut Cohort).
The mark [32] stands for this setting: Non-gBRCAmut Cohort (Regardless of HRD Status).

P-glycoprotein (P-gp), sequence (P08183 whole entry): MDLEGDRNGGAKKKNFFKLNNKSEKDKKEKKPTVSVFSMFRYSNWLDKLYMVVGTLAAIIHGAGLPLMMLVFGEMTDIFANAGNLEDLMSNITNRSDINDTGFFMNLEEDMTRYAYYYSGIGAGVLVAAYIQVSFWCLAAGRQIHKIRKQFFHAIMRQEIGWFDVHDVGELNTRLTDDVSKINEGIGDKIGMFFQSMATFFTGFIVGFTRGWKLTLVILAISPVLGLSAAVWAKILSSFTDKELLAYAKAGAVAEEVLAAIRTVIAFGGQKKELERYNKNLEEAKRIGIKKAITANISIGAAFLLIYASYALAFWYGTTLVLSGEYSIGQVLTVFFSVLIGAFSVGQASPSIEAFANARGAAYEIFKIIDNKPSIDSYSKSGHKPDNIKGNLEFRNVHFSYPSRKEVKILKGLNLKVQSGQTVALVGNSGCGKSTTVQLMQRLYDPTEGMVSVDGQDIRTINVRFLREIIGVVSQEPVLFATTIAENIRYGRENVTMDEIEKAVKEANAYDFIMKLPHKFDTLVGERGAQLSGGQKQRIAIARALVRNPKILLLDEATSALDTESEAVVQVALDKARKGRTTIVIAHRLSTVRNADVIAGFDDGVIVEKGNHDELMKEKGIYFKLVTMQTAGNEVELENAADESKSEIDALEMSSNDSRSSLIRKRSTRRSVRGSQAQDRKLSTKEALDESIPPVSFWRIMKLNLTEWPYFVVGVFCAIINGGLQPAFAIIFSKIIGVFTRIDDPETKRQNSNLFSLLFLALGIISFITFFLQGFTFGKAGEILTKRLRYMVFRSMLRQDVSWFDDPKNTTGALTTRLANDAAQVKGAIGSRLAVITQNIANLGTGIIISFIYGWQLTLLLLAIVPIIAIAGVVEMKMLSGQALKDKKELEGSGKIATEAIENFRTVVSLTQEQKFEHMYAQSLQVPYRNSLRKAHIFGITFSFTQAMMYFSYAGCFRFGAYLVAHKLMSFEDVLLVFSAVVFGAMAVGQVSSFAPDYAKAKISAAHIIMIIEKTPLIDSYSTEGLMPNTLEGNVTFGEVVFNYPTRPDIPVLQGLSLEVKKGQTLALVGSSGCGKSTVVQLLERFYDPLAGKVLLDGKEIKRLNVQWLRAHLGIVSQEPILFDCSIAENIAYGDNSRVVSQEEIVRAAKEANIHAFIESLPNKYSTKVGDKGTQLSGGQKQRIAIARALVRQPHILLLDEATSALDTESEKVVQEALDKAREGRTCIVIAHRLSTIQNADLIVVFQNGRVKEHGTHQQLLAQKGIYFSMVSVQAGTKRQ

For the compound `NC(=O)c1cccc2cn(-c3ccc([C@@H]4CCCNC4)cc3)nc12` [Niraparib], the antitumor activity result in data set [1] is given as “strong antitumor activity”. The “incidence of MDS/AML” value (5 of 367) is 1.4%. For the setting “human, in vivo”, the “anemia (all grades)” value is listed as 49%, the “constipation (all grades)” value was 40%, the “decreased platelet count (all grades)” value was 20% and the “fatigue (all grades)” value is 46%. Further, for the setting “human, in vivo”, the “nausea (all grades)” value is on record as 74%, the “neutropenia (all grades)” value is recorded as 18%, the on-treatment deaths result was “no on-treatment deaths” and the “subjects with at least 1 treatment-emergent adverse event (TEAE)” value is recorded as “All 367”. Besides, for the setting “human, in vivo”, the “thrombocytopenia (all grades)” value is listed as 46% and the “vomiting (all grades)” value is recorded as 34%. In addition, where the note is “overall safety population”, the “TEAEs leading to dose reduction” value is 69%, the “TEAEs leading to treatment discontinuation” value is recorded as 15%, the “TEAEs leading to treatment interruption” value was 67% and the “incidence of Grade 3 or 4 TEAEs” value is listed as 74%. The “incidence of serious adverse events (SAEs)” value (overall safety population) is 30%. Also, in [2], the “reduction in tumor weight compared with control” value was more than 90% and the tumor response entry was “tumor regression”. The antitumor activity entry in [3] was “strong antitumor activity”. In data set [4], the “bone marrow suppression (neutropenia, thrombocytopenia, and anemia), subjects” value is 20-40%. The “hypertension/hypertensive crisis, subjects” value in [4] (treatment for up to two years) was 9%. In addition, the antitumor activity result in data set [5] is recorded as “strong antitumor activity”. Further, the “response in patient-derived xenograft models” value in data set [6] is “demonstrated response in both BRCAmut and BRCA wild-type tumors”. The “effect of food on absorption” value in data set [7] is listed as “does not significantly affect”. Besides, the ORR in [8] (98 subjects in the HRD-positive cohort, RECIST v1.1, 300 mg once daily) is on record as 24%. Further, in data set [8] (HRD-positive cohort), the “Estimated median DOR” value is 8.3 months. For the same compound, in data set [8] (in vivo), the new safety signals entry was “No new safety signals”. Besides, in [8] (primary efficacy population (13 of 47)), the “subjects achieving an overall response” value is given as 28%. In addition, the ORR in data set [8] (tBRCAm ovarian cancer, platinum-refractory disease (3/16)) is listed as 19%. Further, in [8] (tBRCAm ovarian cancer, platinum-resistant disease (6/21)), the ORR is recorded as 29%. In addition, the ORR in data set [8] (tBRCAm ovarian cancer, platinum-sensitive disease (7/18)) was 39%. In addition, the “correlation between exposure level (plasma concentration) and QTc changes (ΔQTcF)” value in data set [9] (in vivo) is “no correlation”. Also, the “clinically significant abnormal ECG changes, including QTc interval prolongation, attributed to niraparib” value in [9] (n=26) is listed as “no reports”. The QT interval result in [9] (therapeutic dose) was “did not prolong”. Further, the synthetic lethality entry in data set [10] (cells with HRD) is on record as “induce synthetic lethality”. Also, in data set [10] (pre-clinical models), the “effect on normal DNA repair mechanisms” value is “inhibit normal DNA repair mechanisms”. Moreover, in [11] (baseline body weight <77 kg or baseline platelet count <150,000 μL), the “grade 3/4 thrombocytopenia rate in the first 30 days” value (“grade 3/4 thrombocytopenia rate” for short) is on record as “approximately 30%”. For the same compound, in [11] (baseline body weight <77 kg or baseline platelet count <150,000 μL, listed as niraparib), the “grade 3/4 thrombocytopenia rate” value is 35.4% and ~30%. Further, the “incidence of grade 3 or 4 thrombocytopenia in the first 30 days” value in [11] (baseline body weight ≥77 kg) is on record as 14%. Besides, in [11] (body weight <58 kg), the “incidence of grade 3 or 4 thrombocytopenia in the first 30 days” value is reported as 43% and the “subjects with a dose reduction” value is on record as “approximately 80%”. Further, the “grade 3/4 thrombocytopenia rate” value in data set [11] (body weight >77 kg and platelet count >150,000 μL) was 11.5%. Also, in data set [11] (highest quartile (≥77 kg)), the treatment discontinuations is recorded as 10%. Further, in data set [11] (setting [30]), the “frequency of thrombocytopenia Grade ≥1” value is 76% and the “frequency of thrombocytopenia Grade ≥3” value is on record as 45%. Moreover, the treatment discontinuations in data set [11] (lower body weight (<58 kg quartile)) is 24%. In data set [11] (weight greater than or equal to 77 kg), the “subjects with a dose reduction” value is given as 59%. In addition, the “substrate for P-gp” value in data set [12] was “relatively poor substrate”. Moreover, in [13] (setting [31]), the “HR (niraparib:placebo)” value was 0.38 and the “Median PFS” value was 12.9 months. Further, in data set [13] (setting [32]), the “HR (niraparib:placebo)” value is recorded as 0.45 and the “Median PFS” value was 9.3 months. The “Median PFS” value in data set [13] (gBRCAmut Cohort, 300 mg QD) is recorded as 21.0 months. In addition, the “HR (niraparib:placebo)” value in [13] (gBRCAmut Cohort, stratified Cox proportional hazards model) is on record as 0.27. Besides, in data set [13] (retrospective analyses from NOVA), the “efficacy at the reduced dose” value is reported as “did not compromise efficacy”. Besides, in [13] (subjects with HRDneg tumors), the HR is recorded as 0.58 and the “Median PFS” value is listed as 6.9 months.
`O=C(c1cc(Cc2n[nH]c(=O)c3ccccc23)ccc1F)N1CCN(C(=O)C2CC2)CC1` [olaparib]: the “myelodysplastic syndrome (MDS) and acute myeloid leukemia (AML)” value in data set [14] is on record as “have been observed”.
Oregovomab: in [15], the “affinity of binding to CA125” value is 1.16e+10 M⁻¹. Also, the “binding force to cancer antigen 125 (CA-125)” value in [15] (during blood circulation) was “less than nano units”. Also, the “effect on the clinical course of disease” value in data set [16] is listed as “insufficient to alter the clinical course of disease”. The acute toxicity entry in data set [17] is “lack of significant acute toxicity”. The acute toxicity entry in data set [18] is on record as “lack of significant acute toxicity”. For the same compound, the “cross-reactivity with selected normal human organs and tissues” value in data set [19] is given as “does not show any significant cross-reactivity”. For the same compound, in data set [20], the humoral response entry is “strong humoral response”. In [21], the cellular responses entry is listed as “evident” and the humoral response entry is recorded as “strong humoral response”. In addition, in data set [21] (compared to controls), the survival result is “increase in survival” and the tumor size result was “decrease in tumor size”. Further, the “binding to adenocarcinomas expressing the CA125 antigen” value in data set [22] is “selective binding”. In data set [23], the ascites production result is on record as “inhibited ascites production”, the survival entry was “long-term survival” and the tumor size entry is “reduced tumor size”. Besides, in data set [24], the “apparent terminal half-life (t1/2z)” value is reported as “around 33 hours”, the “clearance on repeat administration” value was “accelerated”, the “dose of the radiotracer eliminated in the urine” value is reported as “less than 50%” and the “mean residence time (MRT)” value is recorded as “about 45 hours”. The plasma clearance entry in [24] is recorded as “around 110 mL/minute”. The humoral response result in data set [25] is recorded as “strong humoral response”.
Consider bevacizumab, for which the median overall survival entry in [26] was “improved the median overall survival”. The figures for the OS result in [27] and in [28] (added to single agent chemotherapy) were “no difference in OS” and “not OS”, respectively. In addition, the PFS entry was “improved PFS” in [27] and “improved PFS” in data set [28] (added to pegylated liposomal doxorubicin, weekly paclitaxel, or topotecan).
paclitaxel/carboplatin: in data set [29], the “OS (median)” value is 43.2 months, the “PFS (median)” value was 12.2 months and the “time to clinical progression (TTCP) (median)” value is listed as 13.6 months.
